As usually defined, the EC50 is the concentration that produces a half-maximal response. Higher therefore signals weaker potency.

In the experiment the target is T1, human GLP-1 receptor (Homo sapiens, UniProt P43220).
T1 construct: expressed in transfected cells
T1 sequence (P43220 24-463): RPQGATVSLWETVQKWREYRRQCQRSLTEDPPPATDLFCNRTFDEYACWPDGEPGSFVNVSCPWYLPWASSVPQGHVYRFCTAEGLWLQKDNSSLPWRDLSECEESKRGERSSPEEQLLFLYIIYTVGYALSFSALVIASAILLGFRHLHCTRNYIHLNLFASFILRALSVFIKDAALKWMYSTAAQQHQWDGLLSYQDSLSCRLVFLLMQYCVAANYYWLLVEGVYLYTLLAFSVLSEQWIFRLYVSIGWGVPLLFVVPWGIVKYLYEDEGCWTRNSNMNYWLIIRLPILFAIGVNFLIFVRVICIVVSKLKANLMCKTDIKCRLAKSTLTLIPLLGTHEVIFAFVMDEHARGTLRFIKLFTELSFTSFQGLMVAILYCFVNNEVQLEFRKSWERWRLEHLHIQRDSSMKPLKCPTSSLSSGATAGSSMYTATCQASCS
The experiment in a line: GLP-1R cAMP assay (cAMP accumulation in CHO cells stably overexpressing the human GLP-1 receptor, HitHunter kit). The experiment is classed as cell-based. The conditions noted are these: CHO cells stably overexpressing human GLP-1R, 30 min, 20-point dose response in triplicate. Put shortly: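 CHO cells stably expressing the human receptor (10,000/well) in HBSS with 10 mM HEPES and 625 μM IBMX, given compound as a 20-point dose response in triplicate for 30 min. cAMP was read by luminescent enzyme-complementation detection after overnight incubation, and EC50 was fitted from dose-response curves.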
Background: cAMP levels reflect the balance of adenylyl cyclase and phosphodiesterase activity.
For the compound `N#Cc1ccc(OCc2nccc(O[C@H]3CC[C@H](Cc4nc5ccc(C(=O)O)cc5n4C[C@@H]4CCO4)CC3)n2)c(F)c1` [Compound 640, 1-{[(2S)-oxetan-2-yl]methyl}-2-{[(1r,4r)-4-({2-[(4-cyano-2-fluorophenoxy)methyl]pyrimidin-4-yl}oxy)cyclohexyl]methyl}-1H-1,3-benzodiazole-6-carboxylic acid], the EC50 is under 0.1 nM. Under `C[C@H]1C[C@@H](Oc2ccnc(COc3ncc(C#N)cc3F)n2)CCN1Cc1nc2c(F)cc(C(=O)O)cc2n1CCOCC(F)(F)F` [Compound 636, 2-(((2S,4S)-4-((2-(((5-cyano-3-fluoropyridin-2-yl)oxy)methyl)pyrimidin-4-yl)oxy)-2-methylpiperidin-1-yl)methyl)-4-fluoro-1-(2-(2,2,2-trifluoroethoxy)ethyl)-1H-benzo[d]imidazole-6-carboxylic acid] stands 0.1 to 1 nM. For the compound `C[C@@H](Cn1c(CN2CC[C@H](Oc3ccnc(COc4ccc(F)cc4F)n3)C[C@@H]2C)nc2ccc(C(=O)O)cc21)OCC(F)(F)F` [Compound 598, 2-{[(2S,4S)-4-({2-[(2,4-Difluorophenoxy)methyl]pyrimidin-4-yl}oxy)-2-methylpiperidin-1-yl]methyl}-1-[(2S)-2-(2,2,2-trifluoroethoxy)propyl]-1H-1,3-benzodiazole-6-carboxylic acid], the EC50 is 0.1 to 1 nM. Consider `C[C@H]1C[C@@H](Oc2ccnc(COc3ncc(Cl)cc3F)n2)CCN1Cc1nc2ccc(C(=O)O)cc2n1C[C@@H]1CCO1` [Compound 554, 2-(((2S,4S)-4-((2-(((5-Chloro-3-fluoropyridin-2-yl)oxy)methyl)pyrimidin-4-yl)oxy)-2-methylpiperidin-1-yl)methyl)-1-(((S)-oxetan-2-yl)methyl)-1H-benzo[d]imidazole-6-carboxylic acid], for which the EC50 is under 0.1 nM. As to `N#Cc1ccc(OCc2nccc(OC3CCC4(CC3)CC4c3nc4ccc(C(=O)O)cc4n3C[C@@H]3CCO3)n2)c(F)c1` (stereo partly drawn) [Compound 571, 2-(6-((2-((4-Cyano-2-fluorophenoxy)methyl)pyrimidin-4-yl)oxy)spiro[2.5]octan-1-yl)-1-(((S)-oxetan-2-yl)methyl)-1H-benzo[d]imidazole-6-carboxylic acid], the EC50 was 10 to 100 nM. Turning to `C[C@H](Cn1c(CN2CC[C@H](Oc3ccnc(COc4ncc(F)cc4F)n3)C[C@@H]2C)nc2ccc(C(=O)O)cc21)OC(F)F` [Compound 617, 1-((R)-2-(Difluoromethoxy)propyl)-2-(((2S,4S)-4-((2-(((3,5-difluoropyridin-2-yl)oxy)methyl)pyrimidin-4-yl)oxy)-2-methylpiperidin-1-yl)methyl)-1H-benzo[d]imidazole-6-carboxylic acid], the EC50 is under 0.1 nM. With `C[C@H](Cn1c(CN2CC[C@H](Oc3ccnc(COc4ccc(F)cc4F)n3)C[C@@H]2C)nc2ccc(C(=O)O)cc21)OC(F)F` [Compound 592, 1-[(2R)-2-(Difluoromethoxy)propyl]-2-{[(2S,4S)-4-({2-[(2,4-difluorophenoxy)methyl]pyrimidin-4-yl}oxy)-2-methylpiperidin-1-yl]methyl}-1H-1,3-benzodiazole-6-carboxylic acid], the EC50 is under 0.1 nM. Under `C[C@H]1C[C@@H](Oc2ccnc(COc3ccc(F)cc3F)n2)CCN1Cc1nc2ccc(C(=O)O)cc2n1C[C@@H]1CCCO1` [Compound 589, 2-{[(2S,4S)-4-({2-[(2,4-Difluorophenoxy)methyl]pyrimidin-4-yl}oxy)-2-methylpiperidin-1-yl]methyl}-1-{[(2S)-oxolan-2-yl]methyl}-1H-1,3-benzodiazole-6-carboxylic acid] stands 0.1 to 1 nM; under `C[C@@H](Cn1c(CN2CC[C@H](Oc3ccnc(COc4ccc(F)cc4F)n3)C[C@@H]2C)nc2ccc(C(=O)O)cc21)OC(F)F` [Compound 591, 1-[(2S)-2-(Difluoromethoxy)propyl]-2-{[(2S,4S)-4-({2-[(2,4-difluorophenoxy)methyl]pyrimidin-4-yl}oxy)-2-methylpiperidin-1-yl]methyl}-1H-1,3-benzodiazole-6-carboxylic acid], 0.1 to 1 nM; under `N#Cc1ccc(OCc2nccc(O[C@H]3CCN(Cc4nc5ccc(C(=O)O)cc5n4C[C@@H]4CCO4)C[C@@H]3F)n2)c(F)c1` [Compound 553, 2-{[(3S,4S)-4-({2-[(4-cyano-2-fluorophenoxy)methyl]pyrimidin-4-yl}oxy)-3-fluoropiperidin-1-yl]methyl}-1-{[(2S)-oxetan-2-yl]methyl}-1H-1,3-benzodiazole-6-carboxylic acid], 0.1 to 1 nM. `C[C@H]1C[C@@H](Oc2ccnc(COc3ccc(F)cc3C#N)n2)CCN1Cc1nc2ccc(C(=O)O)c(F)c2n1C[C@@H]1CCO1` [Compound 573, 2-{[(2S,4S)-4-({2-[(2-cyano-4-fluorophenoxy)methyl]pyrimidin-4-yl}oxy)-2-methylpiperidin-1-yl]methyl}-7-fluoro-1-{[(2S)-oxetan-2-yl]methyl}-1H-1,3-benzodiazole-6-carboxylic acid] returned an EC50 of under 0.1 nM.

The compound `C[C@H]1C[C@@H](Oc2ccnc(COc3ccc(F)cc3C#N)n2)CCN1Cc1nc2ccc(C(=O)NO)cc2n1C[C@@H]1CCO1` [Compound 560, 2-{[(2S,4S)-4-({2-[(2-Cyano-4-fluorophenoxy)methyl]pyrimidin-4-yl}oxy)-2-methylpiperidin-1-yl]methyl}-N-hydroxy-1-{[(2S)-oxetan-2-yl]methyl}-1H-1,3-benzodiazole-6-carboxamide] showed an EC50 of 0.1 to 1 nM. As for `C[C@H](Cn1c(CN2CC[C@H](Oc3ccnc(COc4ncc(F)cc4C#N)n3)C[C@@H]2C)nc2ccc(C(=O)O)cc21)OC(F)F` [Compound 627, 2-(((2S,4S)-4-((2-(((3-Cyano-5-fluoropyridin-2-yl)oxy)methyl)pyrimidin-4-yl)oxy)-2-methylpiperidin-1-yl)methyl)-1-((R)-2-(difluoromethoxy)propyl)-1H-benzo[d]imidazole-6-carboxylic acid], the figure is 0.1 to 1 nM; as for `COC1(Cn2c(CN3CC[C@H](Oc4ccnc(COc5ccc(F)cc5F)n4)C[C@@H]3C)nc3ccc(C(=O)O)cc32)CCC1` [Compound 600, 2-{[(2S,4S)-4-({2-[(2,4-Difluorophenoxy)methyl]pyrimidin-4-yl}oxy)-2-methylpiperidin-1-yl]methyl}-1-[(1-methoxycyclobutyl)methyl]-1H-1,3-benzodiazole-6-carboxylic acid], 0.1 to 1 nM; as for `CC[C@@H]1C[C@H](Oc2ccnc(COc3ncc(Cl)cc3F)n2)CCN1Cc1nc2ccc(C(=O)O)cc2n1C[C@@H]1CCO1` [Compound 609, 2-{[(2R,4R)-4-[(2-{[(5-Chloro-3-fluoropyridin-2-yl)oxy]methyl}pyrimidin-4-yl)oxy]-2-ethylpiperidin-1-yl]methyl}-1-[(oxetan-2-yl)methyl]-1H-1,3-benzodiazole-6-carboxylic acid], 10 to 100 nM.

Compound `C[C@H]1C[C@@H](Oc2ccnc(COc3ccc(F)cc3F)n2)CCN1Cc1nc2c(F)cc(C(=O)O)cc2n1C[C@@H]1CCCO1` [Compound 621, 2-(((2S,4S)-4-((2-((2,4-Difluorophenoxy)methyl)pyrimidin-4-yl)oxy)-2-methylpiperidin-1-yl)methyl)-4-fluoro-1-(((S)-tetrahydrofuran-2-yl)methyl)-1H-benzo[d]imidazole-6-carboxylic acid] had an EC50 of under 0.1 nM. For the compound `C[C@H](Cn1c(CN2CC[C@H](Oc3ccnc(COc4ccc(F)cc4F)n3)C[C@@H]2C)nc2ccc(C(=O)O)cc21)OCC(F)(F)F` [Compound 594, 2-{[(2S,4S)-4-({2-[(2,4-Difluorophenoxy)methyl]pyrimidin-4-yl}oxy)-2-methylpiperidin-1-yl]methyl}-1-[(2R)-2-(2,2,2-trifluoroethoxy)propyl]-1H-1,3-benzodiazole-6-carboxylic acid], the EC50 fell in the range of 1 to 10 nM.

Take `C[C@H]1C[C@@H](Oc2ccnc(COc3ccc(C#N)cn3)n2)CCN1Cc1nc2ccc(C(=O)O)cc2n1C[C@@H]1CCO1` [Compound 567, 2-{[(2S,4S)-4-[(2-{[(5-Cyanopyridin-2-yl)oxy]methyl}pyrimidin-4-yl)oxy]-2-methylpiperidin-1-yl]methyl}-1-{[(2S)-oxetan-2-yl]methyl}-1H-1,3-benzodiazole-6-carboxylic acid]: the EC50 lay in the range of 0.1 to 1 nM. As for `N#Cc1ccc(OCc2nccc(OC3CCN(Cc4nc5cnc(C(=O)O)cc5n4C[C@@H]4CCO4)CC3)n2)c(F)c1` [Compound 580, 2-{[4-({2-[(4-Cyano-2-fluorophenoxy)methyl]pyrimidin-4-yl}oxy)piperidin-1-yl]methyl}-1-{[(2S)-oxetan-2-yl]methyl}-1H-imidazo[4,5-c]pyridine-6-carboxylic acid], the figure is 1 to 10 nM; as for `C[C@H]1C[C@@H](Oc2ccnc(COc3ncc(Cl)cc3F)c2)CCN1Cc1nc2ccc(C(=O)O)cc2n1C[C@@H]1CCO1` [Compound 615, 2-(((2S,4S)-4-((2-(((5-Chloro-3-fluoropyridin-2-yl)oxy)methyl)pyridin-4-yl)oxy)-2-methylpiperidin-1-yl)methyl)-1-(((S)-oxetan-2-yl)methyl)-1H-benzo[d]imidazole-6-carboxylic acid], 0.1 to 1 nM; as for `C[C@H]1C[C@@H](Oc2ccnc(COc3ccc(F)cc3F)n2)CCN1Cc1nc2c(F)cc(C(=O)O)cc2n1C[C@@H]1CCO1` [Compound 576, 2-{[(2S,4S)-4-({2-[(2,4-di-fluorophenoxy)methyl]pyrimidin-4-yl}oxy)-2-methylpiperidin-1-yl]methyl}-4-fluoro-1-{[(2S)-oxetan-2-yl]methyl}-1H-1,3-benzodiazole-6-carboxylic acid], under 0.1 nM.

Compound `C[C@H]1C[C@@H](Oc2ccnc(COc3ncc(F)cc3C#N)n2)CCN1Cc1nc2c(F)cc(C(=O)O)cc2n1C[C@@H]1CCO1` [Compound 629, 2-(((2S,4S)-4-((2-(((3-cyano-5-fluoropyridin-2-yl)oxy)methyl)pyrimidin-4-yl)oxy)-2-methylpiperidin-1-yl)methyl)-4-fluoro-1-(((S)-oxetan-2-yl)methyl)-1H-benzo[d]imidazole-6-carboxylic acid] came in with an EC50 of under 0.1 nM.

The values are drawn from patent US20260317309A1, “N-HETEROCYLIC GPCR RECEPTOR AGONISTS, PHARMACEUTICAL COMPOSITIONS COMPRISING THE SAME, AND METHODS FOR THEIR USE” (Carmot Therapeutics, Inc., priority 2022, published 2026).
